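Following 48 hours of exposure in 96-well plates, responses at five concentrations were used to interpolate endpoints linearly. TGI is the concentration that stops growth completely.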
What was measured:
Assay in all cases: growth of human tumour cells (NCI), 48 h
786-0 renal = test system: 786-0 renal
A549 NSCLC = test system: A549 NSCLC
BT-549 breast = test system: BT-549 breast
EKVX NSCLC = test system: EKVX NSCLC
HOP-92 NSCLC = test system: HOP-92 NSCLC
HT29 colon = test system: HT29 colon
IGROV1 ovarian = test system: IGROV1 ovarian
K-562 leukemia = test system: K-562 leukemia
KM12 colon = test system: KM12 colon
NCI-H226 lung = test system: NCI-H226 lung
NCI-H23 lung = test system: NCI-H23 lung
NCI-H460 lung = test system: NCI-H460 lung
SK-MEL-5 melanoma = test system: SK-MEL-5 melanoma
SK-OV-3 ovarian = test system: SK-OV-3 ovarian
SNB-75 CNS = test system: SNB-75 CNS
UACC-257 melanoma = test system: UACC-257 melanoma

Compound | TGI (786-0 renal) [µM] | TGI (A549 NSCLC) [µM] | TGI (BT-549 breast) [µM] | TGI (EKVX NSCLC) [µM] | TGI (HOP-92 NSCLC) [µM] | TGI (HT29 colon) [µM] | TGI (IGROV1 ovarian) [µM] | TGI (K-562 leukemia) [µM] | TGI (KM12 colon) [µM] | TGI (NCI-H226 lung) [µM] | TGI (NCI-H23 lung) [µM] | TGI (NCI-H460 lung) [µM] | TGI (SK-MEL-5 melanoma) [µM] | TGI (SK-OV-3 ovarian) [µM] | TGI (SNB-75 CNS) [µM] | TGI (UACC-257 melanoma) [µM]
O=C1NC2c3c(I)sc(I)c3C(=O)C2O1 (configuration not stated) | 20.9 | 28.3 | 15.9 | 16.5 | 10.1 | 3.25 | 8.01 | > 59.9 | 24.3 | 20.4 | 16.6 | 32.9 | 6.16 | 31.5 | 25.8 | 12.2
C[C@H](C1CC(C)(O)C(C)(O)C(O)O1)[C@H]1CC[C@H]2[C@@H]3[C@@H]4O[C@@H]4[C@@]4(O)CC=CC(=O)[C@]4(C)[C@H]3CC[C@]12C (some centres not stated) | > 50 | > 50 | > 50 | > 50 | > 50 | > 50 | > 50 | > 50 | > 50 | > 50 | > 50 | > 50 | > 50 | > 50 | > 50 | > 50
C=C(Cl)C(Cl)(CBr)CCC(Br)C(C)(C)Br (configuration not stated) | 2.59 | 16.3 | 20.8 | 15.6 | 4.38 | 2.41 | 37.3 | 16.3 | 3.45 | 37.2 | 31.5 | 3.71 | 30.2 | 26.5 | 5.45 | 4.4
CO/C=C/C=C(\C#N)C(=O)OC | > 100 | > 100 | > 100 | > 100 | > 100 | > 100 | > 100 | > 100 | > 100 | > 100 | > 100 | > 100 | > 100 | > 100 | > 100 | > 100
CC(C)[N+]([O-])(CCCNc1c2ccccc2nc2cccc([N+](=O)[O-])c12)C(C)C | 10.1 | 2.53 | 0.221 | 0.528 | 0.196 | 1.93 | 0.488 | > 100 | 2.53 | 2.56 | 0.168 | 1.78 | 0.0628 | 2.08 | 0.629 | 0.333
CC1=NN(c2nc(N)nc(CN3CCOCC3)n2)C(C)(C)C1 | 31.2 | > 100 | > 100 | > 100 | > 100 | > 100 | 37.2 | > 100 | > 100 | > 100 | > 100 | > 100 | > 100 | > 100 | > 100 | > 100
CCN1CCC(O)(c2ccc(Oc3ccc(Cl)cc3)cc2)C(C(=O)c2ccc(Oc3ccc(Cl)cc3)cc2)C1 (configuration not stated) | 12.3 | 20.3 | 29.7 | 34.5 | 24.8 | 17.7 | 23.5 | > 100 | 14.9 | 34.5 | 25.7 | 14.9 | 24.7 | 38.9 | 26.2 | 27.1
COc1ccc2c(c1)Cc1c(NCCN(C)C)ccc(C(=O)NCCCN(C)CCCNC(=O)c3ccc(NCCN(C)C)c4c3Nc3ccc(OC)cc3C4)c1N2 | 0.985 | 0.512 | 1.5 | 0.643 | 2.79 | 0.566 | 3.95 | 3.14 | 0.887 | 0.241 | 0.581 | 0.175 | 1.72 | 0.502 | 0.103 | 1.1
Cc1ccc(C)n1-c1ccccc1C1C=Cn2c(=O)nnc3c(OC(C)C)c(OC(C)C)c(O)c1c32 (configuration not stated) | 65.7 | > 100 | > 100 | > 100 | > 100 | 43.6 | > 100 | > 100 | > 100 | 53.6 | > 100 | > 100 | > 100 | > 100 | > 100 | > 100
COc1ccc(S(=O)(=O)N2C(=O)CCC2C(=O)NC(N)=O)cc1 (configuration not stated) | > 100 | > 100 | > 100 | > 100 | > 100 | > 100 | > 100 | > 100 | > 100 | > 100 | > 100 | > 100 | > 100 | > 100 | 1.55 | > 100
Cc1[nH]c(=O)nc2nc3cc(Cl)cc(Cl)c3c(NC(C)(CO)CO)c12 | 91.6 | > 100 | > 100 | > 100 | 57.7 | > 100 | > 100 | > 100 | > 100 | > 100 | > 100 | > 100 | > 100 | > 100 | 38.6 | > 100
CC[C@]12C=CCN3CC[C@@]4(c5cc(N=O)c(OC)cc5N(C)[C@H]4[C@@](O)(C(=O)OC)[C@@H]1OC(C)=O)[C@@H]32 | > 100 | > 100 | > 100 | > 100 | > 100 | > 100 | > 100 | > 100 | > 100 | > 100 | > 100 | > 100 | > 100 | > 100 | > 100 | > 100
